{"source": "patent US20260347364A1", "about": "“PYRAZOLO[4,3-F]QUINAZOLINE DERIVATIVES AS MODULATORS OF G12D MUTANT KRAS USEFUL FOR THE TREATMENT OF CANCER” (JAZZ PHARMACEUTICALS IRELAND LTD., priority 2023, published 2026)", "key": {"KRAS G12D": {"molecular_target": "T1, KRAS G12D (Homo sapiens, UniProt P01116, G12D)", "T1 construct": "aa1-188 KRAS WT, HRAS WT, NRAS WT, or KRAS containing the G12D", "assay": "HTRF nucleotide exchange assay, KRAS G12D", "format": "biochemical", "conditions": "class symbols; for pIC50: HTRF nucleotide exchange assay (NEA)", "description": "(§1) HTRF Nucleotide Exchange Assay Method\n(§2) The capacity of compounds to bind KRAS G12D, other KRAS mutants and wildtype RAS isoforms was quantified using a HTRF nucleotide exchange assay. Recombinant human RAS protein (2 nM; aa1-188 KRAS WT, HRAS WT, NRAS WT, or KRAS containing the G12D, G13D or Q61H amino acid substitutions, or 4 nM KRAS; aa1-188 containing the G12V, G12C, G12A or G12S amino acid substitution, an N-terminal 6× His-tag and leader sequence), and 2 nM Europium-labeled anti-6× His antibody were mixed in assay buffer (10 mM HEPES pH 7.3, 150 mM NaCl, 5 mM MgCl2, 0.05% BSA, 0.0025% NP-40 and 100 mM KF) with various concentrations of compound in a 384-well plate and a volume of 5 μL. After a 60-minute incubation at room temperature, 5 μl of 200 nM EDA-GTP-DY647P1 (diluted in assay buffer) was added to the plate. Following 30-minute incubation at room temperature, time-resolved fluorescence was measured on a PerkinElmer Envision plate reader. DMSO (0.3%) and unlabeled GDP (1 μM) or equivalent tool compound were used to generate the Max and Min assay signals, respectively. Data was analysed using a four-parameter logistic model to calculate IC50 values, with at least two independent replicates were performed for each compound. The results are presented as IC50s in Table 29 where “A” corresponds to an IC50 ≤10 nM, “B” to an IC50 >10 nM up to 100 nM, “C” is >100 nM up to 10 μM, “D” represents <49% inhibition at 10 μM and ND=not determined: […]"}, "KRAS WT": {"molecular_target": "T2, KRAS WT (Homo sapiens, UniProt P01116)", "T2 construct": "aa1-188 KRAS WT", "assay": "HTRF nucleotide exchange assay, KRAS WT", "format": "biochemical", "conditions": "class symbols; for pIC50: HTRF nucleotide exchange assay (NEA)", "description": "as §1, §2"}}, "note": "pIC50: −log10 of the molar value.", "data": [{"smiles": "Cc1c(-c2ccc(F)c3sc(N)c(C#N)c23)c2nn(C)cc2c2c(N3CCCn4nc(C(=O)N(C)C)cc4C3)nc(OC[C@@]34CCCN3C[C@H](F)C4)nc12", "note": "[Example 101, 5-[4-(2-amino-3-cyano-7-fluoro-benzothiophen-4-yl)-7-[[(2R,8S)-2-fluoro-1,2,3,5,6,7-hexahydropyrrolizin-8-yl]methoxy]-2,5-dimethyl-pyrazolo[4,3-f]quinazolin-9-yl]-N,N-dimethyl-4,6,7,8-tetrahydropyrazolo[1,5-a][1,4]diazepine-2-carboxamide]", "values": [{"measurement": "pIC50", "setting": "KRAS G12D", "result": "≥ 8.00"}, {"measurement": "pIC50", "setting": "KRAS WT", "result": "≥ 8.00"}]}, {"smiles": "Cc1cc2[nH]ncc2c(-c2c(C)c3nc(OCC45CCCN4CC(F)C5)nc(N4CCOCC(C)(O)C4)c3c3cn(C)nc23)c1Cl", "note": "[Example 173, 4-[4-(5-chloro-6-methyl-1H-indazol-4-yl)-2,5-dimethyl-7-[[(2R,8S)-2-fluoro-1,2,3,5,6,7-hexahydropyrrolizin-8-yl]methoxy]pyrazolo[4,3-f]quinazolin-9-yl]-6-methyl-1,4-oxazepan-6-ol]", "values": [{"measurement": "pIC50", "setting": "KRAS G12D", "result": "7.00 to 8.00"}, {"measurement": "pIC50", "setting": "KRAS WT", "result": "5.00 to 7.00"}]}, {"smiles": "CCc1c(F)ccc2cc(O)cc(-c3c(F)c4nc(OCC56CCCN5CC(=C(F)F)C6)nc(N5CCOCC(C)(O)C5)c4c4cn(C)nc34)c12", "note": "(stereo not shown) [Example 235, 4-[7-[[6-(difluoromethylene)-2,3,5,7-tetrahydro-1H-pyrrolizin-8-yl]methoxy]-4-(8-ethyl-7-fluoro-3-hydroxy-1-naphthyl)-5-fluoro-2-methyl-pyrazolo[4,3-f]quinazolin-9-yl]-6-methyl-1,4-oxazepan-6-ol]", "values": [{"measurement": "pIC50", "setting": "KRAS G12D", "result": "≥ 8.00"}, {"measurement": "pIC50", "setting": "KRAS WT", "result": "≥ 8.00"}]}, {"smiles": "CCc1c(F)ccc2cc(O)cc(-c3cc4nc(OC[C@@]56CCCN5C[C@H](F)C6)nc(N5CCCC6(CC(O)C6)C5)c4c4cn(C)nc34)c12", "note": "(stereo partly drawn) [Example 136, 6-[4-(8-ethyl-7-fluoro-3-hydroxy-1-naphthyl)-2-methyl-7-[[(2R,8S)-2-fluoro-1,2,3,5,6,7-hexahydropyrrolizin-8-yl]methoxy]pyrazolo[4,3-f]quinazolin-9-yl]-6-azaspiro[3.5]nonan-2-ol]", "values": [{"measurement": "pIC50", "setting": "KRAS G12D", "result": "≥ 8.00"}, {"measurement": "pIC50", "setting": "KRAS WT", "result": "≥ 8.00"}]}, {"smiles": "Cn1cc2c(n1)c(-c1ncc(F)c3sc(N)c(C#N)c13)cc1nc(OC[C@@]34CCCN3C[C@H](F)C4)nc(N3CCOCC(C)(O)C3)c12", "note": "(stereo partly drawn) [Example 107, 2-amino-7-fluoro-4-[7-[[(2R,8S)-2-fluoro-1,2,3,5,6,7-hexahydropyrrolizin-8-yl]methoxy]-9-(6-hydroxy-6-methyl-1,4-oxazepan-4-yl)-2-methyl-pyrazolo[4,3-f]quinazolin-4-yl]thieno[3,2-c]pyridine-3-carbonitrile]", "values": [{"measurement": "KRAS^G12D NEA", "setting": "KRAS G12D", "result": "D (<49% inhibition at 10 μM)"}, {"measurement": "KRAS^WT NEA", "setting": "KRAS WT", "result": "D (<49% inhibition at 10 μM)"}]}, {"smiles": "C=Cc1c(F)ccc2cc(O)cc(-c3c(C)c4nc(OC[C@@]56CCCN5C[C@H](F)C6)nc(N5CCCn6nc(C(=O)N(C)C)cc6C5)c4c4cn(C)nc34)c12", "note": "[Example 98, 5-[4-(7-fluoro-3-hydroxy-8-vinyl-1-naphthyl)-2,5-dimethyl-7-[[(2R,8S)-2-fluoro-1,2,3,5,6,7-hexahydropyrrolizin-8-yl]methoxy]pyrazolo[4,3-f]quinazolin-9-yl]-N,N-dimethyl-4,6,7,8-tetrahydropyrazolo[1,5-a][1,4]diazepine-2-carboxamide]", "values": [{"measurement": "pIC50", "setting": "KRAS G12D", "result": "≥ 8.00"}, {"measurement": "pIC50", "setting": "KRAS WT", "result": "≥ 8.00"}]}, {"smiles": "CCc1c(F)ccc2cc(O)cc(-c3cc4nc(OC[C@@]56CCCN5C[C@H](F)C6)nc(N5CCOCC(O)C5)c4c4cn(C)nc34)c12", "note": "(stereo partly drawn) [Example 120, 4-[4-(8-ethyl-7-fluoro-3-hydroxy-1-naphthyl)-2-methyl-7-[[(2R,8S)-2-fluoro-1,2,3,5,6,7-hexahydropyrrolizin-8-yl]methoxy]pyrazolo[4,3-f]quinazolin-9-yl]-1,4-oxazepan-6-ol]", "values": [{"measurement": "pIC50", "setting": "KRAS G12D", "result": "≥ 8.00"}, {"measurement": "pIC50", "setting": "KRAS WT", "result": "≥ 8.00"}]}, {"smiles": "CCc1c(F)ccc2cc(O)cc(-c3c(F)c4nc(OC[C@@]56CCCN5C[C@H](F)C6)nc(N5C[C@H]6COC[C@H]6C5)c4c4cn(C)nc34)c12", "note": "[Example 174, 5-ethyl-6-fluoro-4-[5-fluoro-2-methyl-9-[(3aR,6aS)-1,3,3a,4,6,6a-hexahydrofuro[3,4-c]pyrrol-5-yl]-7-[[(2R,8S)-2-fluoro-1,2,3,5,6,7-hexahydropyrrolizin-8-yl]methoxy]pyrazolo[4,3-f]quinazolin-4-yl]naphthalen-2-ol]", "values": [{"measurement": "pIC50", "setting": "KRAS G12D", "result": "≥ 8.00"}, {"measurement": "pIC50", "setting": "KRAS WT", "result": "≥ 8.00"}]}, {"smiles": "CCc1c(F)ccc2cc(O)cc(-c3c(F)c4nc(OCC5(CN(C)C)CC5)nc(N5CCOCC(C)(O)C5)c4c4cn(C)nc34)c12", "note": "(stereo not shown) [Example 157, 4-[7-[[1-[(dimethylamino)methyl]cyclopropyl]methoxy]-4-(8-ethyl-7-fluoro-3-hydroxy-1-naphthyl)-5-fluoro-2-methyl-pyrazolo[4,3-f]quinazolin-9-yl]-6-methyl-1,4-oxazepan-6-ol]", "values": [{"measurement": "pIC50", "setting": "KRAS G12D", "result": "≥ 8.00"}, {"measurement": "pIC50", "setting": "KRAS WT", "result": "≥ 8.00"}]}, {"smiles": "CCc1c(F)ccc2cc(O)cc(-c3cc4nc(OC[C@@]56CCCN5C[C@H](F)C6)nc(N5CC6CNCC6C5)c4c4cn(C)nc34)c12", "note": "(stereo partly drawn) [Example 25, 4-(2,7-diazaspiro[4.4]nonan-2-yl)-6-(8-ethyl-7-fluoro-3-hydroxy-1-naphthyl)-2-[[(2R,8S)-2-fluoro-1,2,3,5,6,7-hexahydropyrrolizin-8-yl]methoxy]-7H-pyrrolo[3,4-d]pyrimidin-5-one]", "values": [{"measurement": "pIC50", "setting": "KRAS G12D", "result": "≥ 8.00"}, {"measurement": "pIC50", "setting": "KRAS WT", "result": "5.00 to 7.00"}]}, {"smiles": "CCC1CCCc2cc(O)cc(-c3cc4nc(OC[C@@]56CCCN5C[C@H](F)C6)nc(N5CCCOCC5)c4c4cn(C)nc34)c21", "note": "(stereo partly drawn) [Example 66, 1-ethyl-8-[2-methyl-9-(1,4-oxazepan-4-yl)-7-[[(2R,8S)-2-fluoro-1,2,3,5,6,7-hexahydropyrrolizin-8-yl]methoxy]pyrazolo[4,3-f]quinazolin-4-yl]tetralin-6-ol]", "values": [{"measurement": "pIC50", "setting": "KRAS G12D", "result": "7.00 to 8.00"}, {"measurement": "pIC50", "setting": "KRAS WT", "result": "7.00 to 8.00"}]}, {"smiles": "CCc1c(F)ccc2cc(O)cc(-c3c(F)c4nc(OC[C@@H]5C[C@@H](F)CN5)nc(N5CCOCC(C)(O)C5)c4c4cn(C)nc34)c12", "note": "(stereo partly drawn) [Example 150, 4-[4-(8-ethyl-7-fluoro-3-hydroxy-1-naphthyl)-5-fluoro-2-methyl-7-[[(2S,4R)-4-fluoropyrrolidin-2-yl]methoxy]pyrazolo[4,3-f]quinazolin-9-yl]-6-methyl-1,4-oxazepan-6-ol]", "values": [{"measurement": "pIC50", "setting": "KRAS G12D", "result": "≥ 8.00"}, {"measurement": "pIC50", "setting": "KRAS WT", "result": "≥ 8.00"}]}, {"smiles": "CCc1c(F)ccc2cc(O)cc(-c3c(F)c4nc(OCC5(C#N)CCOC5)nc(N5CCOCC(C)(O)C5)c4c4cn(C)nc34)c12", "note": "(stereo not shown) [Example 164, 3-[[4-(8-ethyl-7-fluoro-3-hydroxy-1-naphthyl)-5-fluoro-9-(6-hydroxy-6-methyl-1,4-oxazepan-4-yl)-2-methyl-pyrazolo[4,3-f]quinazolin-7-yl]oxymethyl]tetrahydrofuran-3-carbonitrile]", "values": [{"measurement": "pIC50", "setting": "KRAS G12D", "result": "≥ 8.00"}, {"measurement": "pIC50", "setting": "KRAS WT", "result": "7.00 to 8.00"}]}, {"smiles": "CCc1c(F)ccc2cc(O)cc(-c3cc4nc(OC[C@@]56CCCN5C[C@H](F)C6)nc(N5CCCOCC5)c4c4cn(C5CC5)nc34)c12", "note": "[Example 44, 4-[2-cyclopropyl-9-(1,4-oxazepan-4-yl)-7-[[(2R,8S)-2-fluoro-1,2,3,5,6,7-hexahydropyrrolizin-8-yl]methoxy]pyrazolo[4,3-f]quinazolin-4-yl]-5-ethyl-6-fluoro-naphthalen-2-ol]", "values": [{"measurement": "pIC50", "setting": "KRAS G12D", "result": "7.00 to 8.00"}, {"measurement": "pIC50", "setting": "KRAS WT", "result": "7.00 to 8.00"}]}, {"smiles": "CCc1c(F)ccc2cc(O)cc(-c3c(F)c4nc(OCC56CCCN5CCC6)nc(N5CCOCC(C)(O)C5)c4c4cn(C)nc34)c12", "note": "(stereo not shown) [Example 160, 4-[4-(8-ethyl-7-fluoro-3-hydroxy-1-naphthyl)-5-fluoro-7-(1,2,3,5,6,7-hexahydropyrrolizin-8-ylmethoxy)-2-methyl-pyrazolo[4,3-f]quinazolin-9-yl]-6-methyl-1,4-oxazepan-6-ol]", "values": [{"measurement": "pIC50", "setting": "KRAS G12D", "result": "≥ 8.00"}, {"measurement": "pIC50", "setting": "KRAS WT", "result": "≥ 8.00"}]}, {"smiles": "CCc1c(F)ccc2cc(O)cc(-c3c(F)c4nc(OCC5(CN6CCOCC6)CC5)nc(N5CCOCC(C)(O)C5)c4c4cn(C)nc34)c12", "note": "(stereo not shown) [Example 162, 4-[4-(8-ethyl-7-fluoro-3-hydroxy-1-naphthyl)-5-fluoro-2-methyl-7-[[1-(morpholinomethyl)cyclopropyl]methoxy]pyrazolo[4,3-f]quinazolin-9-yl]-6-methyl-1,4-oxazepan-6-ol]", "values": [{"measurement": "pIC50", "setting": "KRAS G12D", "result": "≥ 8.00"}, {"measurement": "pIC50", "setting": "KRAS WT", "result": "≥ 8.00"}]}, {"smiles": "CN(C)C(=O)c1cc2n(n1)CCCN(c1nc(OC[C@@]34CCCN3C[C@H](F)C4)nc3cc(-c4cccc5sc(N)c(C#N)c45)c4nn(C)cc4c13)C2", "note": "[Example 76, 5-[4-(2-amino-3-cyano-benzothiophen-4-yl)-7-[[(2R,8S)-2-fluoro-1,2,3,5,6,7-hexahydropyrrolizin-8-yl]methoxy]-2-methyl-pyrazolo[4,3-f]quinazolin-9-yl]-N,N-dimethyl-4,6,7,8-tetrahydropyrazolo[1,5-a][1,4]diazepine-2-carboxamide]", "values": [{"measurement": "pIC50", "setting": "KRAS G12D", "result": "≥ 8.00"}, {"measurement": "pIC50", "setting": "KRAS WT", "result": "7.00 to 8.00"}]}]}
